Where two headings read alike, the source gives them in different places.

One data set deals with BACE2 (Homo sapiens (Human), UniProt Q9Y5Z0). Nature of the data set: In vitro enzymatic BACE2 FRET assay. In kind it is biochemical.
Data set [1] deals with T1, BACE1 (Homo sapiens (Human), UniProt P56817). Nature of the data set: BACE1 cell assay. In kind it is cell-based.
Target sequence in this assay (P56817 46-501, species assumed): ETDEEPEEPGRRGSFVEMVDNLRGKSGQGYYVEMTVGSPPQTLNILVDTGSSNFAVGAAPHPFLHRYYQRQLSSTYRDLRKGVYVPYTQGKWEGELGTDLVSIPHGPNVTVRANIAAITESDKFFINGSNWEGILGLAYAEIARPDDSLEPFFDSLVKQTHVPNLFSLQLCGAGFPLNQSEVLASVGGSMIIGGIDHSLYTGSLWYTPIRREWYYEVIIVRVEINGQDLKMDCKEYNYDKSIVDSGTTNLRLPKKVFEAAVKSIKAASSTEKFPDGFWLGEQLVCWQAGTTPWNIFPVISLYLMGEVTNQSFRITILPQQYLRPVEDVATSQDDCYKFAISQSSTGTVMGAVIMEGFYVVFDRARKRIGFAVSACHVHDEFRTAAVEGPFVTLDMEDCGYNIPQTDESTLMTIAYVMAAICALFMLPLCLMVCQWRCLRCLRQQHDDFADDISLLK
For data set [2], the target named is T1, BACE1. Nature of the data set: In vitro enzymatic BACE1 FRET assay. In kind it is biochemical.
Target sequence in this assay (P56817 46-501): as the sequence (P56817 46-501, species assumed) above
From the text: (§1) In Vitro Enzymatic BACE1 and BACE2 FRET (Fluorescence Resonance Energy Transfer) Assays (Enzyme Assay Data in Table 1)
The next data set deals with Aβ 40. The experiment in a line: In vivo inhibition of beta-secretase: Aβ 40 reduction in rat CSF and brain.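 Further: male Sprague Dawley rats dosed orally in 2% HPMC, 1% Tween80 (pH 2.2) vehicle, Aβ40 quantified by sandwich ECL-based ELISA in CSF and brain supernatants.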 To be noted: after 4 hrs, versus vehicle.
The next data set concerns the target Cathepsin D (CatD) (Homo sapiens (Human), UniProt P07339). Nature of the data set: CatD assay. In kind it is biochemical. Particulars: read-out: IC50 IP (μM) CatD.
Data set [3] addresses T1, BACE1. Particulars: cited from earlier work.
Target sequence in this assay (P56817 46-501): as the sequence (P56817 46-501, species assumed) above
In data set [4] the test system is pigment epithelium of the rat's eye. Particulars: higher compound dose given for three months; cited from earlier work.
[5] abbreviates: read-out: IC50 IP (μM) BACE2 Enzyme.
The mark [6] stands for this setting: read-out: IC50 IP (μM) BACE1 Enzyme.
The mark [7] stands for this setting: read-out: IC50 IP (μM) BACE1 Cell.

Sequence of Cathepsin D (CatD) (P07339 65-412, species assumed): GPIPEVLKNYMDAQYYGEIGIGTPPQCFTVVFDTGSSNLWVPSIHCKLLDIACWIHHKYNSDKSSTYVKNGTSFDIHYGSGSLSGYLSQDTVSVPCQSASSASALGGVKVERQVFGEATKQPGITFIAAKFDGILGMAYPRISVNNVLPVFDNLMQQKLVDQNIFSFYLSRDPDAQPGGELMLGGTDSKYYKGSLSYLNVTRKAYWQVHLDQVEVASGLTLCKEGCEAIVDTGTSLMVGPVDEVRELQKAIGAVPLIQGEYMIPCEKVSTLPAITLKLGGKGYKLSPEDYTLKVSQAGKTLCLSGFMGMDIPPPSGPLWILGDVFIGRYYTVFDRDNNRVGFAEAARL
Sequence of BACE2 (Q9Y5Z0 63-518): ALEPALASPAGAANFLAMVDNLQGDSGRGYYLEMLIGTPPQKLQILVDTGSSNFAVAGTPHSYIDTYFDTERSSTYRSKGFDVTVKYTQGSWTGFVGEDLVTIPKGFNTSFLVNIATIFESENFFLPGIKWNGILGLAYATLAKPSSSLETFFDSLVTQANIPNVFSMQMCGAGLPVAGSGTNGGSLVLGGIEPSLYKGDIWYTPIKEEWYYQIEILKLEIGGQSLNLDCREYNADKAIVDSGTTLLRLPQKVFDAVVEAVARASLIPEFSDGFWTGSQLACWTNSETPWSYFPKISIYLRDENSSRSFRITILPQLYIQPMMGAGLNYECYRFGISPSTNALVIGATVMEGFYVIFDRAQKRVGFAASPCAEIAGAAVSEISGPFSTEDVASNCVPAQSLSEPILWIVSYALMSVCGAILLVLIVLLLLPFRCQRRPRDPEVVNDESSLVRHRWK
From the text for Aβ 40: Several animal models, including mouse, rat, dog, and monkey, may be used to screen for inhibition of beta-secretase activity in vivo following administration of a test compound sample. […] A separate group of animals receive 2% hydroxypropyl methylcellulose, 1% Tween80 alone, containing no test compound, and serve as a vehicle-control group. At the end of the test period, animals are sacrificed and brain tissues, plasma or cerebrospinal fluid are collected. […] Homogenates are centrifuged at 355,000 g, 4° C. for 30 minutes. CSF or brain supernatants are then analyzed for the presence of Aβ by specific sandwich ELISA assays based on ECL (Electrochemiluminescence) technology. For example, rat Abeta40 is measured using biotinylated-4G8 (Signet) as a capture antibody and Fab40 (an in-house antibody specific to the C-terminal of Abeta40) as a detection antibody. […] Actual vehicles used: Oral: 2% HPMC, 1% Tween80, pH 2.2
From the text for BACE2: as §1

In general, IC50 refers to the concentration at which inhibition is half-maximal. Turning to `CNC(=O)[C@]12C[C@H]1[C@@](C)(c1cc(/C=C(\F)c3ccc(C#N)cn3)ccc1F)N=C(N)S2` [Example 222, (1S,5S,6S)-3-amino-5-(5-((Z)-2-(5-cyanopyridin-2-yl)-2-fluorovinyl)-2-fluorophenyl)-N,5-dimethyl-2-thia-4-azabicyclo[4.1.0]hept-3-ene-1-carboxamide], the half-maximal inhibitory concentration (IC50) was determined as 0.091 µM on BACE2 (setting [5]), 0.0017 µM against BACE1 [1], 0.0018 µM at BACE1 [2] (setting [6]) and 429 µM on Cathepsin D (CatD). Further, in the data set with Aβ 40, the “% Aβ 40 reduction in rat CSF at 10 mpk” value came out at 70%. Further, the “% Aβ 40 reduction in rat brain at 10 mpk” value in the data set on Aβ 40 amounted to 62%.
For `CNC(=O)[C@]12C[C@H]1[C@@](C)(c1cc(/C=C(\F)c3cnc(C#N)cn3)ccc1F)N=C(N)S2` [Example 223, (1S,5S,6S)-3-amino-5-(5-((Z)-2-(5-cyanopyrazin-2-yl)-2-fluorovinyl)-2-fluorophenyl)-N,5-dimethyl-2-thia-4-azabicyclo[4.1.0]hept-3-ene-1-carboxamide], the half-maximal inhibitory concentration (IC50) on BACE2 (setting [5]) was determined as 0.08 µM; against BACE1 [1] it was 0.0022 µM; at BACE1 [2] (setting [6]), 0.0018 µM; at Cathepsin D (CatD), 234 µM. The “% Aβ 40 reduction in rat CSF at 10 mpk” value in the data set with Aβ 40 was determined as 64%. Besides, the “% Aβ 40 reduction in rat brain at 10 mpk” value in the data set with Aβ 40 is given as 48%.
For `CC#CCOc1cnc(/C(F)=C/c2ccc(F)c([C@@]3(C)N=C(N)S[C@@]4(S(C)(=O)=O)C[C@H]43)c2)cn1` [Example 231, (1R,5S,6S)-5-(5-((Z)-2-(5-(but-2-yn-1-yloxy)pyrazin-2-yl)-2-fluorovinyl)-2-fluorophenyl)-5-methyl-1-(methylsulfonyl)-2-thia-4-azabicyclo[4.1.0]hept-3-en-3-amine], the IC50 was determined as 0.03 µM on BACE2 (setting [5]), 0.0029 µM on BACE1 [1] (setting [7]), 0.0002 µM on BACE1 [2] (setting [6]) and 47.8 µM at Cathepsin D (CatD). In the data set with Aβ 40, the “% Aβ 40 reduction in rat CSF at 10 mpk” value is on record as 37%. Also, in the data set with Aβ 40, the “% Aβ 40 reduction in rat brain at 10 mpk” value was 26%.
For `CC#CCOc1cnc(/C(F)=C/c2ccc(F)c([C@@]3(C)N=C(N)S[C@@]4(C(N)=O)C[C@H]43)c2)cn1` [Example 241, (1S,5S,6S)-3-amino-5-(5-((Z)-2-(5-(but-2-yn-1-yloxy)pyrazin-2-yl)-2-fluorovinyl)-2-fluorophenyl)-5-methyl-2-thia-4-azabicyclo[4.1.0]hept-3-ene-1-carboxamide], the IC50 at BACE2 (setting [5]) stood at 0.115 µM; at BACE1 [1] (setting [7]), 0.0039 µM; on BACE1 [2] (setting [6]) it was 0.0004 µM; on Cathepsin D (CatD) it was 165 µM. The “% Aβ 40 reduction in rat CSF at 10 mpk” value in the data set with Aβ 40 was 45%. Besides, the “% Aβ 40 reduction in rat brain at 10 mpk” value in the data set on Aβ 40 is reported as 47%.
Regarding `C#CCOc1cnc(/C(F)=C/c2cnc(F)c([C@@]3(C)N=C(N)S[C@@]4(C(=O)N5[C@H]6COC[C@H]5COC6)C[C@H]43)c2)cn1` [Example 284, ((1S,5S,6S)-3-amino-5-(2-fluoro-5-((Z)-2-fluoro-2-(5-(prop-2-yn-1-yloxy)pyrazin-2-yl)vinyl)pyridin-3-yl)-5-methyl-2-thia-4-azabicyclo[4.1.0]hept-3-en-1-yl)((1R,5R)-3,7-dioxa-9-azabicyclo[3.3.1]nonan-9-yl)methanone], the half-maximal inhibitory concentration (IC50) against BACE2 worked out at 0.255 µM; on BACE1 [1] (setting [7]) it was 0.0035 µM; against BACE1 [2] it was 0.0039 µM; on Cathepsin D (CatD), 133 µM. Further, the “% Aβ 40 reduction in rat CSF at 10 mpk” value with Aβ 40 is 14%. The “% Aβ 40 reduction in rat brain at 10 mpk” value with Aβ 40 was determined as 4%.
As to `COC[C@]12C[C@H]1[C@@](C)(c1cc(/C=C(\F)c3cnc(C#N)cn3)ccc1F)N=C(N)S2` [Example 299, 5-((Z)-2-(3-((1S,5S,6S)-3-amino-1-(methoxymethyl)-5-methyl-2-thia-4-azabicyclo[4.1.0]hept-3-en-5-yl)-4-fluorophenyl)-1-fluorovinyl)pyrazine-2-carbonitrile], the IC50 is 0.259 µM at BACE2 (setting [5]), 0.0063 µM at BACE1 [1] (setting [7]), 0.0073 µM at BACE1 [2] (setting [6]) and 491 µM on Cathepsin D (CatD). Also, the “% Aβ 40 reduction in rat CSF at 10 mpk” value in the data set with Aβ 40 worked out at 71%. Besides, the “% Aβ 40 reduction in rat brain at 10 mpk” value with Aβ 40 came to 64%.
In the case of `C#CCOc1cnc(/C(F)=C/c2cnc(F)c([C@@]3(C)N=C(N)S[C@@]4(C(=O)N5CCOCC5)C[C@H]43)c2)cn1` [Example 301, ((1S,5S,6S)-3-amino-5-(2-fluoro-5-((Z)-2-fluoro-2-(5-(prop-2-yn-1-yloxy)pyrazin-2-yl)vinyl)pyridin-3-yl)-5-methyl-2-thia-4-azabicyclo[4.1.0]hept-3-en-1-yl)(morpholino)methanone], the IC50 at BACE2 (setting [5]) was 0.309 µM; on BACE1 [1], 0.0045 µM; at BACE1 [2] (setting [6]) it was 0.0018 µM; on Cathepsin D (CatD), 177 µM. Besides, the “% Aβ 40 reduction in rat CSF at 10 mpk” value in the data set with Aβ 40 was determined as 48%. In the data set with Aβ 40, the “% Aβ 40 reduction in rat brain at 10 mpk” value is 41%.
In the case of `C#CCOc1cnc(/C(F)=C/c2ccc(F)c([C@@]3(C)N=C(N)S[C@@]4(C(=O)NCC(F)F)C[C@H]43)c2)cn1` [Example 302, (1S,5S,6S)-3-amino-N-(2,2-difluoroethyl)-5-(2-fluoro-5-((Z)-2-fluoro-2-(5-(prop-2-yn-1-yloxy)pyrazin-2-yl)vinyl)phenyl)-5-methyl-2-thia-4-azabicyclo[4.1.0]hept-3-ene-1-carboxamide], the half-maximal inhibitory concentration (IC50) at BACE2 (setting [5]) was 0.109 µM; at BACE1 [1], 0.0047 µM; at BACE1 [2] (setting [6]), 0.0019 µM; at Cathepsin D (CatD), 8.5 µM. Also, the “% Aβ 40 reduction in rat CSF at 10 mpk” value with Aβ 40 is given as 62%. The “% Aβ 40 reduction in rat brain at 10 mpk” value in the data set with Aβ 40 is 55%.
For `C[C@@H]1[C@H](F)CCN1C(=O)[C@]12C[C@H]1[C@@](C)(c1cc(/C=C(\F)c3ccc(C#N)cn3)ccc1F)N=C(N)S2` [Example 307, 6-((Z)-2-(3-((1S,5S,6S)-3-amino-1-((2R,3R)-3-fluoro-2-methylpyrrolidine-1-carbonyl)-5-methyl-2-thia-4-azabicyclo[4.1.0]hept-3-en-5-yl)-4-fluorophenyl)-1-fluorovinyl)nicotinonitrile], the IC50 stood at 0.1 µM at BACE2 (setting [5]), 0.002 µM at BACE1 [1] (setting [7]), 0.002 µM at BACE1 [2] (setting [6]) and 11 µM on Cathepsin D (CatD). In addition, the “% Aβ 40 reduction in rat CSF at 10 mpk” value with Aβ 40 came out at 67%. In addition, the “% Aβ 40 reduction in rat brain at 10 mpk” value in the data set on Aβ 40 was 59%.
Regarding `C[C@@]1(c2cc(-c3cncnc3)c(F)cc2F)CCSC(N)=N1` [LY2811376], on BACE1 [3] (in vivo), the safety and tolerability result was “safe and well tolerated”. Besides, the “Aβ reductions in lumbar CSF” value at BACE1 [3] (oral dosing of 30 or 90 mg) was “Prominent and long-lasting Aβ reductions”.
For the compound `C[C@@]1(c2cc(-c3cncnc3)c(F)cc2F)CCSC(N)=N1` [LY 2811376], the “eye toxicity finding in rat toxicology studies” value in data set [4] is reported as “damaged the pigment epithelium of the rat's eye”.
